The values that follow come from PubChem BioAssay AID434951 (Broad Institute, 2010).

The source made the active and inactive calls.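 The calls were made as follows: active = a fitted half-maximal concentration EC50 for the rise in nuclear signal no higher than ten times the top dose tested; inconclusive = flat fit with activity between 30% and 70%, or unusable fit; inactive = EC50 beyond ten times the top dose.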

This experiment deals with Hypoxia-inducible factor 1-alpha (Homo sapiens) (UniProt Q16665). In words: activators of HIF1alpha nuclear accumulation, confirmation, imaging, fluorescence, U2OS GFP-HIF1alpha (AID 434951). Particulars: U2OS GFP-HIF1alpha nuclear intensity, high-content imaging.
Chain of Hypoxia-inducible factor 1-alpha (Homo sapiens) (Q16665 whole entry, looked up): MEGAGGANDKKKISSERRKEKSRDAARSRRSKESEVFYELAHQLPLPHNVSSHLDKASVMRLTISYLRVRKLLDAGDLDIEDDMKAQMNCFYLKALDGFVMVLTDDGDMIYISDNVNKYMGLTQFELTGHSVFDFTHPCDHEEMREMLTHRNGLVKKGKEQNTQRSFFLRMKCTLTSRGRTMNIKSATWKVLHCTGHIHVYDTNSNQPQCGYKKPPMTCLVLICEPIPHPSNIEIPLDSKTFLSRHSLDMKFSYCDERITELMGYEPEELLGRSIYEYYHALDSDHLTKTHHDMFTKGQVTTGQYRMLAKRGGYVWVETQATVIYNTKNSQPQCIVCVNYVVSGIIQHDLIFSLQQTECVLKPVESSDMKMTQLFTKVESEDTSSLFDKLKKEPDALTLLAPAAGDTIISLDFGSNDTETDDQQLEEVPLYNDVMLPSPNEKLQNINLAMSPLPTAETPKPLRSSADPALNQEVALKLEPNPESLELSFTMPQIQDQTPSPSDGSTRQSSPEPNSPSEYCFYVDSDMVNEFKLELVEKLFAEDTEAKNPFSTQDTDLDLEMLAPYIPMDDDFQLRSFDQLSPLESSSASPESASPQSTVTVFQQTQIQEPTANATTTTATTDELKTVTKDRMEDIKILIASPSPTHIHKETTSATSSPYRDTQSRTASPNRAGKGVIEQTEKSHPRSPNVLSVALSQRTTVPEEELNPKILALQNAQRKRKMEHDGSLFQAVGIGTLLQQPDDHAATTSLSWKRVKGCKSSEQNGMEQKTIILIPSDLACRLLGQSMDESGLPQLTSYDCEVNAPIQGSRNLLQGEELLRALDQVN
With `Cc1ccc2nc(-c3ccccc3NC(=O)CCC(=O)O)c(=O)[nH]c2c1`, the EC50 is > 35 µM (inactive).

On to `Cc1ccc2c(c1)cc(C(=O)NCc1ccccc1)n2C`, for which the EC50 is > 35 µM (inactive). Consider `O=C(N/N=C/c1cc(Br)ccc1OC(=O)c1ccc(Br)cc1)c1ccncc1`, for which the EC50 was > 35 µM (inactive).

Regarding `COc1ccc2cc3cc(C(=O)N4CCN(c5ccccn5)CC4)oc3nc2c1`, the EC50 is > 35 µM (inactive). To `C=CCn1c(N2CCCCCC2)nc2c1c(=O)[nH]c(=O)n2C` belongs > 35 µM (inactive). Under `CN(C(=O)COC(=O)c1ccc(F)c(S(=O)(=O)N2CCOCC2)c1)C1CCS(=O)(=O)C1` (configuration not stated) stands > 35 µM (inactive).

Regarding `CCOCC(=O)Nc1ccc(S(=O)(=O)N2CCC(c3nc4ccccc4[nH]3)CC2)cc1`, the EC50 is > 35 µM (inactive).

Usually EC50 stands for the concentration at which the effect is half-maximal.
